A short description of data set [1]: Half life at 55 degree Centigrade. The format is ADME.
Data set [2] can be described thus: Half life at 110 degree Centigrade. The format is ADME.
Data set [3] deals with B16. Put plainly: Optimum dose against solid neoplasm B-16 melanoma. The format is functional, Mus musculus.
Data set [4] relates to Colon 26 (Mus musculus). The data set is described as follows: Optimum dose against solid neoplasm colon 26.
Data set [5] concerns L1210. The data set is described as follows: Optimum dose against murine L1210 leukemia. The format is functional, Mus musculus.
Data set [6] has as its system P388. The data set is described as follows: Optimum dose against P388 murine tumor cell line. The format is functional, Mus musculus.
Data set [7] concerns HNBM. The data set is described as follows: Cytotoxic activity against HNBM bone marrow normal cell lines. The format is functional, cell-based. As to conditions: Homo sapiens.
Data set [8] has as its system H322. The data set is described as follows: Cytotoxic activity against H-322 lung carcinoma tumor cell lines. The format is functional, cell-based. The conditions noted are these: Homo sapiens, NCI-H322.
In data set [9] the test system is U-251. The data set is described as follows: Cytotoxic activity against U-251 MG glioblastoma tumor cell lines. The format is functional, cell-based. As to conditions: Homo sapiens.
Data set [10] has as its system HT-29. The data set is described as follows: Cytotoxic activity against HT-29 Colon carcinoma tumor cell lines. The format is functional, cell-based. The conditions noted are these: Homo sapiens.
Data set [11] concerns HMEC. Put plainly: Cytotoxic activity against HMEC human mammary epithelial normal cell lines. The format is functional, cell-based.
Data set [12] relates to M21. The data set is described as follows: Cytotoxic activity against M-21 melanoma tumor cell lines. As to conditions: Homo sapiens. The format is functional, cell-based.
Data set [13] concerns UCLA P-3. Put plainly: Cytotoxic activity against UCLA P-3 lung carcinoma tumor cell lines. The format is functional, cell-based. As to conditions: Homo sapiens.
Data set [14] concerns P388. The data set is described as follows: Cytotoxic activity against P-388 mouse leukemia cell lines. The format is functional, cell-based.
Data set [15] relates to TCAF. The data set is described as follows: Cytotoxic activity against TCAF T-cell leukemia tumor cell lines. The format is functional, cell-based. The conditions noted are these: Homo sapiens.
Data set [16] relates to MCF7. The data set is described as follows: Cytotoxic activity against MCF-7 breast carcinoma tumor cell lines. The format is functional, cell-based. As to conditions: Homo sapiens.
The test system of data set [17] is HL-60. The data set is described as follows: Cytotoxic activity against HL-60 promyelocytic leukemia tumor cell lines. The conditions noted are these: Homo sapiens. The format is functional, cell-based.
Data set [18] has as its system TCAF-DAX. The data set is described as follows: Cytotoxic activity against TCAF-DAX T-cell leukemia tumor cell lines. The format is functional, cell-based. As to conditions: Homo sapiens.
The subject of data set [19] is CAPAN-1. The data set is described as follows: Cytotoxic activity against Capan-1 pancreatic carcinoma tumor cell lines. As to conditions: Homo sapiens. The format is functional, cell-based.
The test system of data set [20] is OVCAR-3. The data set is described as follows: Cytotoxic activity against Ovcar-3 ovarian carcinoma tumor cell lines. The format is functional, cell-based. As to conditions: Homo sapiens.
In data set [21] the test system is L1210. The data set is described as follows: Cytotoxic activity against L-1210 mouse leukemia tumor cell lines. The format is functional, cell-based.
The test system of data set [22] is OVCAR-4. The data set is described as follows: Cytotoxic activity against Ovcar-4 ovarian carcinoma tumor cell lines. The format is functional, cell-based. As to conditions: Homo sapiens.
The subject of data set [23] is NHDF. Put plainly: Cytotoxic activity against NHDF normal human dermal fibroblast cell lines. The format is functional, cell-based.
In data set [24] the test system is U-87 MG. Put plainly: Cytotoxic activity against […] astrocytoma tumor cell lines. The format is functional, cell-based, U-87MG ATCC. As to conditions: Homo sapiens.
Data set [25] concerns SK-MEL-28. The data set is described as follows: Cytotoxic activity against SK-Mel-28 melanoma tumor cell lines. The format is functional, cell-based. The conditions noted are these: Homo sapiens.
Data set [26] deals with RPMI-8226. Put plainly: Cytotoxic activity against RPMI-8226 myeloma tumor cell lines. The format is functional, cell-based. The conditions noted are these: Homo sapiens.
Data set [27] concerns M14. Put plainly: Cytotoxic activity against M-14 melanoma tumor cell lines. The format is functional, cell-based. The conditions noted are these: Homo sapiens.
Data set [28] can be described thus: Half life at 37 degree Centigrade. The format is ADME.

Each structure is given as a SMILES string.

The source of these data is ChEMBL document CHEMBL1129320, “The enediyne antibiotics” (J Med Chem, 1996).

Molecule `CC1=C(C)C(=O)C2=C(C#CCCCC(O)C#C2)C1=O` (stereo not drawn) had a half-life in data set [1] of 2.6 h.

The molecule `CC1=C(C)C(=O)C2=C(C#CCCCC(=O)C#C2)C1=O` displayed a half-life in data set [1] of 0.533 h.

`Cc1c(C)c(C(=O)OC(C)(C)C)c2c(c1C(=O)OC(C)(C)C)C#CCCCC(O)C#C2` (stereo not drawn): in data set [2], the half-life was 74 h.

With `COC(=O)NC1=C2/C(=C/CSSSC)[C@](O)(C#C/C=C\C#CC2OC2OC(C)C(NOC3CC(O)C(SC(=O)c4c(C)c(Br)c(OC5OC(C)C(O)C(OC)C5O)c(OC)c4OC)C(C)O3)C(O)C2OC2CC(OC)C(NC(C)C)CO2)CC1=O` (stereo partly drawn) [CALICHEAMICIN BETA1 BR], the OD in [3], in data set [4], in [5] and in data set [6] was 5 µg/kg throughout.

For the molecule `CCN[C@H]1CO[C@@H](O[C@H]2[C@H](O[C@H]3C#C/C=C/C#C[C@@]4(O)CC(=O)C(NC(=O)OC)=C3/C4=C\CSSSC)O[C@H](C)[C@@H](NO[C@H]3C[C@H](O)[C@H](SC(=O)c4c(C)c(I)c(O[C@@H]5O[C@@H](C)[C@H](O)[C@@H](OC)[C@H]5O)c(OC)c4OC)[C@@H](C)O3)[C@@H]2O)C[C@@H]1OC` [CALICHEAMICIN GAMMA1 I], the OD in data set [3], in [4], in data set [5] and in data set [6] was 5 µg/kg throughout.

Take `COC(=O)NC1=C2/C(=C/CSSSC)[C@](O)(C#C/C=C\C#CC2OC2OC(C)C(NOC3CC(O)C(SC(=O)c4c(C)c(I)c(OC5OC(C)C(O)C(OC)C5O)c(OC)c4OC)C(C)O3)C(O)C2OC2CC(OC)C(NC(C)C)CO2)CC1=O` (stereo partly drawn) [CALICHEAMICIN BETA1 I]: the OD in [3], in data set [4], in data set [5] and in data set [6] was 5 µg/kg throughout.

With `CCNC1COC(OC2C(OC3C#C/C=C\C#C[C@]4(O)CC(=O)C(NC(=O)OC)=C3/C4=C/CSSSC)OC(C)C(NOC3CC(O)C(SC(=O)c4c(C)c(Br)c(OC5OC(C)C(O)C(OC)C5O)c(OC)c4OC)C(C)O3)C2O)CC1OC` (stereo partly drawn) [CALICHEAMICIN GAMMA1 BR], the OD in [3], in data set [4], in data set [5] and in data set [6] was 5 µg/kg throughout.

On to `COC(=O)NC1=C2/C(=C/CSSSC)[C@](O)(C#C/C=C\C#CC2OC2OC(C)C(NOC3CC(O)C(SC(=O)c4c(C)c(I)c(OC5OC(C)C(O)C(OC)C5O)c(OC)c4OC)C(C)O3)C(O)C2O)CC1=O` (stereo partly drawn) [CALICHEAMICIN ALPHA3 I], for which the OD in [3], in [4], in data set [5] and in [6] was 5 µg/kg in each case.

`O=C(OCCS(=O)(=O)c1ccccc1)N1c2ccc(OCCO)cc2[C@@]23O[C@]24CCC[C@H]3C#C/C=C\C#C[C@H]14`: the IC50 worked out at 50000 nM in data set [7]; 390 nM in data set [8]; 390 nM in data set [9]; 1600 nM in data set [10]; 6300 nM in [11]; 1600 nM in [12]. Moreover, the half-inhibitory concentration (IC50) turned out to be 98 nM in data set [13]; 4.6 nM in [14]; 1.1 nM in [15]; 780 nM in data set [16]; 0.036 nM in data set [17]; 1.7 nM in [18]. Also, the IC50 in data set [19] is 3.1 nM; in data set [20] it was 780 nM; in data set [21] it was 1.3 nM; in [22] it was 780 nM; in data set [23] it was 5000 nM; in data set [24], 780 nM. Moreover, the figures for the IC50 in data set [25], in [26] and in data set [27] were 3100 nM, 7.7 nM and 1600 nM, respectively.

On to `CNC1C(O[C@H]2C#C/C=C\C#C[C@]3(O)CC(=O)C(NC(=O)OC)[C@]24SCCC=C34)OC(C)C(O)C1O` (stereo partly drawn), for which the T1/2 in data set [28] is 4.5 s.

On to `CNC1COC(OC2C(OC3C#C/C=C\C#C[C@]4(O)CC(=O)C(NC(=O)OC)=C3/C4=C/CSSSC)OC(C)C(NOC3CC(O)C(SC(=O)c4c(C)c(I)c(OC5OC(C)C(O)C(OC)C5O)c(OC)c4OC)C(C)O3)C2O)CC1OC` (stereo partly drawn) [CALICHEAMICIN DELTA1 I], for which the OD in [3], in [4], in [5] and in data set [6] was 5 µg/kg in each case.

On to `CCNC1COC(OC2C(OC3C#C/C=C\C#C[C@]4(O)CC(=O)C(NC(=O)OC)=C3/C4=C/CSSSC)OC(C)C(NOC3CC(O)C(SC(=O)c4c(C)c(I)c(O)c(OC)c4OC)C(C)O3)C2O)CC1OC` (stereo partly drawn) [CALICHEAMICIN ALPHA1 I], for which the OD in data set [3], in data set [4], in [5] and in [6] was 5 µg/kg in each case.

A word on the half-life: it is the time needed for the level to fall by half in the phase considered. The IC50 is the concentration that gives 50% inhibition. Low readings indicate greater potency, high ones weaker potency.
